Data published in patent US20220356186A1, “PERK INHIBITING PYRROLOPYRIMIDINE COMPOUNDS” (HiberCell, Inc., priority 2019, published 2022).
Read-outs that look alike come from different tables or passages of the source.

Experiments:
[1] = system: GFP-eIF2α in HEK293 cells; assay: PERK cellular assay, TR-FRET in HEK293-EGFP-eIF2a cells after tunicamycin-induced ER stress; type: cell-based; conditions: HEK293-EGFP-eIF2a cells, tunicamycin 2 hours, read-out: Cellular eIF2α IC50
Outline: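 Compounds were added 30 min before a 2 h tunicamycin ([…]) challenge of lentivirally made GFP-eIF2α HEK293 cells, 5000/well; lysate TR-FRET ratio was the read-out.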

[2] = target: T1, EIF2AK3 (PERK) catalytic domain (amino acids 536-1116) (Homo sapiens, UniProt Q9NZJ5); assay: PERK in vitro activity assay (isolated), TR-FRET kinase assay; type: biochemical; conditions: isolated PERK enzyme, 1.5 μM ATP; read-out: Biochemical IC50
T1 construct: EIF2AK3 (PERK) catalytic domain (amino acids 536-1116)
T1 sequence (Q9NZJ5 536-1116): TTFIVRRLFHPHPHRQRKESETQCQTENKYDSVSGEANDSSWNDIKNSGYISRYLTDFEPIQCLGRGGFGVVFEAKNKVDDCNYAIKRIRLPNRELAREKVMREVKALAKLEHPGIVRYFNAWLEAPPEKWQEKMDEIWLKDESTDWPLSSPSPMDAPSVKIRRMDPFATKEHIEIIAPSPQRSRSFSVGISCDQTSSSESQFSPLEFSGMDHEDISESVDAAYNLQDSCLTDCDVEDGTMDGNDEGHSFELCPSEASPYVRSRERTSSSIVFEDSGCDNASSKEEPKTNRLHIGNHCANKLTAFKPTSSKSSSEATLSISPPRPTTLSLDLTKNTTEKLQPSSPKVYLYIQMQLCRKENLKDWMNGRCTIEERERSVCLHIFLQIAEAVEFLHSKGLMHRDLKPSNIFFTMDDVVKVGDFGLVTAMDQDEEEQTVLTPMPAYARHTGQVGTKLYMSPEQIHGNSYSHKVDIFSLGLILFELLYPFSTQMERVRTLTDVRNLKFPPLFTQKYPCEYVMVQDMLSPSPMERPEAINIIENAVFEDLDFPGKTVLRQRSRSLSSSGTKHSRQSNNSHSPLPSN
Outline: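 TR-FRET read-out: after EDTA stop (10 mM final), Tb-labelled phospho-eIF2a antibody (2 nM) for 90 min; IC50 via 4-parameter nonlinear fit. Reaction: PERK aa 536-1116, GFP-eIF2a 100-200 nM, HEPES pH 7.5 with MgCl2/EGTA/Brij-35, 45 min, room temperature, started by enzyme.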

Cc1nc(N)c2c(-c3ccc(NC(=O)C(O)c4cccc(Cl)c4)cc3C)cn(C)c2n1 (centres unmarked) [Example 38, N-(4-(4-amino-2,7-dimethyl-7H-pyrrolo[2,3-d]pyrimidin-5-yl)-3-methylphenyl)-2-(3-chlorophenyl)-2-hydroxyacetamide]
IC50 [1]: 0.501 to 1 µM
IC50 [2]: 0.051 to 0.1 µM

Cc1nc(N)c2c(-c3ccc(NC(=O)C(O)c4cc(F)cc(C(F)(F)F)c4)cc3F)cn(C)c2n1 (centres unmarked) [Example 87, N-(4-(4-amino-2,7-dimethyl-7H-pyrrolo[2,3-d]pyrimidin-5-yl)-3-fluorophenyl)-2-(3-fluoro-5-(trifluoromethyl)phenyl)-2-hydroxyacetamide]
IC50 [1]: 0.051 to 0.1 µM
IC50 [2]: 0.001 to 0.025 µM

CCc1cc(F)cc(C(O)C(=O)Nc2ccc(-c3cn(C)c4nc(C)nc(N)c34)c(C)c2)c1 (centres unmarked) [Example 58, N-(4-(4-amino-2,7-dimethyl-7H-pyrrolo[2,3-d]pyrimidin-5-yl)-3-methylphenyl)-2-(3-ethyl-5-fluorophenyl)-2-hydroxyacetamide]
IC50 [1]: 0.051 to 0.1 µM
IC50 [2]: 0.001 to 0.025 µM

Cc1nc(N)c2c(-c3ccc(NC(=O)C(O)c4cccc(Cl)c4)c(F)c3F)cn(C)c2n1 (centres unmarked) [Example 112, N-(4-(4-amino-2,7-dimethyl-7H-pyrrolo[2,3-d]pyrimidin-5-yl)-2,3-difluorophenyl)-2-(3-chlorophenyl)-2-hydroxyacetamide]
IC50 [1]: 0.501 to 1 µM
IC50 [2]: 0.101 to 0.25 µM

Cc1nc(N)c2c(-c3ccc(NC(=O)C(O)c4cccc(F)c4)cc3)cn(C)c2n1 (centres unmarked) [Example 23, N-(4-(4-amino-2,7-dimethyl-7H-pyrrolo[2,3-d]pyrimidin-5-yl)phenyl)-2-(3-fluorophenyl)-2-hydroxyacetamide]
IC50 ([1]; Homo sapiens, HEK293, 2 h): 0.501 to 1 µM
IC50 [2]: 0.001 to 0.025 µM

Cc1cccc(C(O)C(=O)Nc2ccc(-c3cn(C)c4nc(C)nc(N)c34)c(Cl)c2)c1 (centres unmarked) [Example 96, N-(4-(4-amino-2,7-dimethyl-7H-pyrrolo[2,3-d]pyrimidin-5-yl)-3-chlorophenyl)-2-hydroxy-2-(m-tolyl)acetamide]
IC50 [1]: 0.001 to 0.025 µM
IC50 [2]: 0.001 to 0.025 µM

Cc1cccc(C(O)C(=O)Nc2ccc(-c3cn(C)c4ncnc(N)c34)c(C)c2)c1 (centres unmarked) [Example 41, N-(4-(4-amino-7-methyl-7H-pyrrolo[2,3-d]pyrimidin-5-yl)-3-methylphenyl)-2-hydroxy-2-(m-tolyl)acetamide]
IC50 ([1]; Homo sapiens, HEK293, 2 h): 0.001 to 0.025 µM
IC50 [2]: 0.001 to 0.025 µM

Cc1cc(NC(=O)c2ccccc2)ccc1-c1cn(C)c2ncnc(N)c12 [Example 167, N-(4-(4-amino-7-methyl-7H-pyrrolo[2,3-d]pyrimidin-5-yl)-3-methylphenyl)benzamide]
IC50 ([1]; Homo sapiens, HEK293, 2 h): 3 to 4 µM
IC50 [2]: 0.101 to 0.25 µM

Cc1cc(NC(=O)C(O)c2ccccc2C(F)(F)F)ccc1-c1cn(C)c2ncnc(N)c12 (centres unmarked) [Example 45, N-(4-(4-amino-7-methyl-7H-pyrrolo[2,3-d]pyrimidin-5-yl)-3-methylphenyl)-2-hydroxy-2-(2-(trifluoromethyl)phenyl)acetamide]
IC50 ([1]; Homo sapiens, HEK293, 2 h): 0.101 to 0.25 µM
IC50 [2]: 0.001 to 0.025 µM

Cc1cc(NC(=O)C(O)c2ccccc2F)ccc1-c1cn(C)c2ncnc(N)c12 (centres unmarked) [Example 31, N-(4-(4-amino-7-methyl-7H-pyrrolo[2,3-d]pyrimidin-5-yl)-3-methylphenyl)-2-(2-fluorophenyl)-2-hydroxyacetamide]
IC50 ([1]; Homo sapiens, HEK293, 2 h): 0.026 to 0.05 µM
IC50 [2]: 0.001 to 0.025 µM

Cc1nc(N)c2c(-c3ccc(NC(=O)C(O)c4cccc(F)c4)nc3C)cn(C)c2n1 (centres unmarked) [Example 127, N-(5-(4-amino-2,7-dimethyl-7H-pyrrolo[2,3-d]pyrimidin-5-yl)-6-methylpyridin-2-yl)-2-(3-fluorophenyl)-2-hydroxyacetamide]
IC50 [1]: 0.101 to 0.25 µM
IC50 [2]: 0.001 to 0.025 µM

Cc1cc(NC(=O)Cc2ccc3ccccc3c2)ccc1-c1cn(C)c2ncnc(N)c12 [Example 152, N-(4-(4-amino-7-methyl-7H-pyrrolo[2,3-d]pyrimidin-5-yl)-3-methylphenyl)-2-(naphthalen-2-yl)acetamide]
IC50 ([1]; Homo sapiens, HEK293, 2 h): 0.051 to 0.1 µM
IC50 [2]: 0.001 to 0.025 µM

Cc1cc(NC(=O)Cc2cccc(C(C)C)c2)ccc1-c1cn(C)c2ncnc(N)c12 [Example 148, N-(4-(4-amino-7-methyl-7H-pyrrolo[2,3-d]pyrimidin-5-yl)-3-methylphenyl)-2-(3-isopropylphenyl)acetamide]
IC50 ([1]; Homo sapiens, HEK293, 2 h): 0.101 to 0.25 µM
IC50 [2]: 0.001 to 0.025 µM

Cc1cc(NC(=O)C(O)c2cccc(C(F)(F)F)c2)ccc1-c1cn(C)c2ncnc(N)c12 (centres unmarked) [Example 48, N-(4-(4-amino-7-methyl-7H-pyrrolo[2,3-d]pyrimidin-5-yl)-3-methylphenyl)-2-hydroxy-2-(3-(trifluoromethyl)phenyl)acetamide]
IC50 [1]: 0.051 to 0.1 µM
IC50 [2]: 0.001 to 0.025 µM

Cc1nc(N)c2c(-c3ccc(NC(=O)C(O)c4cccc(F)c4)c(F)c3C)cn(C)c2n1 (centres unmarked) [Example 12, N-(4-(4-amino-2,7-dimethyl-7H-pyrrolo[2,3-d]pyrimidin-5-yl)-2-fluoro-3-methylphenyl)-2-(3-fluorophenyl)-2-hydroxyacetamide]
IC50 [1]: 0.001 to 0.025 µM
IC50 [2]: 0.001 to 0.025 µM

Cc1nc(N)c2c(-c3ccc(NC(=O)C(O)c4cc(F)cc(C(F)(F)F)c4)cc3C)cn(C)c2n1 (single isomer, unassigned) [Example 54, N-(4-(4-amino-2,7-dimethyl-7H-pyrrolo[2,3-d]pyrimidin-5-yl)-3-methylphenyl)-2-(3-fluoro-5-(trifluorophenyl)phenyl)-2-hydroxyacetamide]
IC50 [1]: 0.026 to 0.05 µM
IC50 [2]: 0.001 to 0.025 µM

Cc1nc(N)c2c(-c3ccc(NC(=O)C(O)c4ccccc4Cl)cc3C)cn(C)c2n1 (centres unmarked) [Example 34, N-(4-(4-amino-2,7-dimethyl-7H-pyrrolo[2,3-d]pyrimidin-5-yl)-3-methylphenyl)-2-(2-chlorophenyl)-2-hydroxyacetamide]
IC50 ([1]; Homo sapiens, HEK293, 2 h): 0.501 to 1 µM
IC50 [2]: 0.101 to 0.25 µM

Cc1cccc(C(O)C(=O)Nc2ccc(-c3cn(C)c4ncnc(N)c34)c(C)c2)n1 (centres unmarked) [Example 60, N-(4-(4-amino-7-methyl-7H-pyrrolo[2,3-d]pyrimidin-5-yl)-3-methylphenyl)-2-hydroxy-2-(6-methylpyridin-2-yl)acetamide]
IC50 ([1]; Homo sapiens, HEK293, 2 h): 0.101 to 0.25 µM
IC50 [2]: 0.001 to 0.025 µM

CCc1cc(NC(=O)C(O)c2cccc(F)c2)ccc1-c1cn(C)c2nc(C)nc(N)c12 (centres unmarked) [Example 69, N-(4-(4-amino-2,7-dimethyl-7H-pyrrolo[2,3-d]pyrimidin-5-yl)-3-ethylphenyl)-2-(3-fluorophenyl)-2-hydroxyacetamide]
IC50 [1]: 2 to 3 µM
IC50 [2]: 0.101 to 0.25 µM

Cc1nc(N)c2c(-c3cc(F)c(NC(=O)C(O)c4cccc(F)c4)cc3F)cn(C)c2n1 (centres unmarked) [Example 123, N-(4-(4-amino-2,7-dimethyl-7H-pyrrolo[2,3-d]pyrimidin-5-yl)-2,5-difluorophenyl)-2-(3-fluorophenyl)-2-hydroxyacetamide]
IC50 ([1]; Homo sapiens, HEK293, 2 h): 0.026 to 0.05 µM
IC50 [2]: 0.001 to 0.025 µM

Cc1nc(N)c2c(-c3ccc(NC(=O)C(O)c4cc(F)cc(F)c4)c(F)c3F)cn(C)c2n1 (single isomer, unassigned) [Example 114, N-(4-(4-amino-2,7-dimethyl-7H-pyrrolo[2,3-d]pyrimidin-5-yl)-2,3-difluorophenyl)-2-(3,5-difluorophenyl)-2-hydroxyacetamide]
IC50 [1]: 1 to 2 µM
IC50 [2]: 0.251 to 0.5 µM

Cc1nc(N)c2c(-c3ccc(NC(=O)C(O)c4cc(F)cc(C(F)(F)F)c4)cc3C)cn(C)c2n1 (single isomer, unassigned) [Example 55, N-(4-(4-amino-2,7-dimethyl-7H-pyrrolo[2,3-d]pyrimidin-5-yl)-3-methylphenyl)-2-(3-fluoro-5-(trifluoromethyl)phenyl)-2-hydroxyacetamide]
IC50 [1]: 0.251 to 0.5 µM
IC50 [2]: 0.101 to 0.25 µM

Cc1nc(N)c2c(-c3ccc(NC(=O)C(O)c4cccc(F)c4)nc3C)cn(C)c2n1 (centres unmarked) [Example 128, N-(5-(4-amino-2,7-dimethyl-7H-pyrrolo[2,3-d]pyrimidin-5-yl)-6-methylpyridin-2-yl)-2-(3-fluorophenyl)-2-hydroxyacetamide]
IC50 [1]: > 5 µM
IC50 [2]: 0.501 to 1 µM

Cc1nc(N)c2c(-c3ccc(NC(=O)C(O)c4cccc(C(F)(F)F)c4)nc3C)cn(C)c2n1 (centres unmarked) [Example 130, N-(5-(4-amino-2,7-dimethyl-7H-pyrrolo[2,3-d]pyrimidin-5-yl)-6-methylpyridin-2-yl)-2-hydroxy-2-(3-(trifluoromethyl)phenyl)acetamide]
IC50 [1]: 1 to 2 µM
IC50 [2]: 0.101 to 0.25 µM

Cc1nc(N)c2c(-c3ccc(NC(=O)C(O)c4cccc(Cl)c4)cc3C)cn(C)c2n1 (centres unmarked) [Example 36, N-(4-(4-amino-2,7-dimethyl-7H-pyrrolo[2,3-d]pyrimidin-5-yl)-3-methylphenyl)-2-(3-chlorophenyl)-2-hydroxyacetamide]
IC50 [1]: 0.026 to 0.05 µM
IC50 [2]: 0.001 to 0.025 µM
